Drawing on patent publication US20100022542A1, “COMPOUNDS EXHIBITING THROMBOPOIETIN RECEPTOR AGONISM” (Shionogi & Co., Ltd., priority 2000, published 2010), this text covers EC50 for 50 molecules.

A word on the EC50: it is the concentration needed to bring the measured effect to its halfway point. A low value points to greater potency.

The assay addresses T1, human TPO receptor (hTPOR) (Homo sapiens, UniProt P40238).
T1 construct: expressed in transfected cells; host or cells: BaF-B03 (murine IL-3 dependent cell line)
T1 sequence (P40238 26-635): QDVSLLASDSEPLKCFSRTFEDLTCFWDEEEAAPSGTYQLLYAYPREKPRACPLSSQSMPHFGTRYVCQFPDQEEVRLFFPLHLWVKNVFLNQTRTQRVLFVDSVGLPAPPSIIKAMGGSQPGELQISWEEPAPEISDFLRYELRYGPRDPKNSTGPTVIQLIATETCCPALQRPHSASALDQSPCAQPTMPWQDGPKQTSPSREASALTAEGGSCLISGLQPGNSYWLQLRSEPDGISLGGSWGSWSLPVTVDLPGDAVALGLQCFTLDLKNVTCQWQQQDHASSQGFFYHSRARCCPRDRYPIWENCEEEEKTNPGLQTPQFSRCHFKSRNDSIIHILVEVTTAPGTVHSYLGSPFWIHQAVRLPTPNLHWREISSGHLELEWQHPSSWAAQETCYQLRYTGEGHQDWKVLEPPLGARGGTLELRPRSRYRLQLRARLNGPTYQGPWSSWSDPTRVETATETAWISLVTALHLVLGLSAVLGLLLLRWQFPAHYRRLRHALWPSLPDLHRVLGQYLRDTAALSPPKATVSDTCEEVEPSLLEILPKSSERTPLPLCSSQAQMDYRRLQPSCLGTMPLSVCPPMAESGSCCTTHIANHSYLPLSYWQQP
The assay is described as follows: Proliferation of TPO dependent BaF/hTPOR cells, WST-1, thrombopoietic activity ED50 (Test Example 3). It counts as cell-based. Particulars: 20 h incubation then WST-1 4 h, absorbance at 450 nm. From the text:
FIG. 2: The chart represents proliferation of the human TPO dependent cells bearing human TPO receptors by the present invention compound, wherein the x-axis is concentration of the present invention compound, and the y-axis is the absorbance as an indicator of cell proliferation. Open circles indicate a response of human TPO, and closed circles indicate a response of the compound (B-1).
The TPO dependent BaF/hTPOR cell line which was established by introducing human TPO receptor (hTPOR) into BaF-B03 cells according to Collins et al (J. Cell. Physiol., 137:293-298 (1988)) was used to test the thrombopoietic activity of the present compound. The DNA sequences and encoded peptide sequences for human hTPOR have been described by Vigon et al (Proc. Natl. Acad. Sci. USA, 89:5640-5644 (1992)). TPO dose not have any ability to support proliferation of interleukin-3 dependent parental cell line BaF-B03. BAF/hTPOR cells were maintained in RPMI medium and WEHI-3B conditioned medium as a source of murine interleukin-3 (IL-3). These cells were washed and resuspended in RPMI medium without a source of murine IL-3 and seeded into each well of 96-well microtiter plates at a density of 5×10^4 cells per well in the absence or presence of various concentration of hTPO or the present compound. After incubation at 37° C. for 20 hours in the 5% CO2 incubator, 10% WST-1 reagent (Takara Biomedicals, Japan) was added to each wells and the cells were further incubated for 4 hours. Effect of the present compound on the growth of BAF/mTPOR cell line which was established by introducing murine TPO receptor (mTPOR) into BAF-B03 cells is shown in FIG. 3. Table 8 exemplifies the ED50 for tested compounds of the present invention, wherein the ED50 is the half concentration of the concentration showing the maximum thrombopoietic activity.
`CCOC(=O)C(F)Cc1ccc(C(=O)Nc2nc(-c3ccc(Cl)c(Cl)c3)cs2)cc1` (centres unmarked) [Compound G-7] displayed an EC50 of 400 nM.
The value for `C/C(=C\c1ccc(C(=O)Nc2nc(-c3ccc(Cl)c(Cl)c3)cs2)cc1)C(=O)NCc1cccs1` [Compound B-15] was 197 nM.
The result for `C/C(=C\c1ccc(C(=O)Nc2nc(-c3ccc(F)cc3)cs2)cc1)C(=O)O` [Compound A-24] reads 288 nM; that for `C=CCNC(=O)/C(C)=C/c1ccc(C(=O)Nc2nc(-c3ccc(Cl)c(Cl)c3)cs2)cc1` [Compound B-41], 190 nM; that for `CCOC(=O)/C(Cl)=C/c1ccc(C(=O)Nc2nc(-c3ccc(F)c(F)c3)cs2)cc1` [Compound A-35], 96 nM.
The result for `Cn1cc(-c2csc(NC(=O)c3ccc(/C=C(\Cl)C(=O)O)cc3)n2)c2ccccc21` [Compound A-66] reads 211 nM.
Take `CCOC(=O)C(C)=Cc1ccc(C(=O)Nc2nc(-c3ccc(F)c(F)c3)cs2)cc1` [Compound A-9]: it took 504 nM to reach a half-maximal effect (EC50).
The value for `CCOC(=O)/C(Cl)=C/c1ccc(C(=O)Nc2nc(-c3cccc(C(F)(F)F)c3)cs2)cc1` [Compound A-41] was 39 nM; that for `CCCCCc1ccc(-c2csc(NC(=O)c3ccc(/C=C(\Cl)C(=O)O)cc3)n2)cc1` [Compound A-49] was 116 nM.
Consider `O=C(O)CCc1ccc(C(=O)Nc2nc(-c3ccc(Cl)c(Cl)c3)cs2)cc1` [Compound G-2], for which the EC50 was found to be 299 nM.
The value for `O=C(O)/C(Cl)=C/c1ccc(C(=O)Nc2nc(-c3cc(C(F)(F)F)cc(C(F)(F)F)c3)cs2)cc1` [Compound A-65] was 28 nM; that for `CCCCCCc1cccc(-c2csc(NC(=O)c3ccc(/C=C(\Cl)C(=O)O)cc3)n2)c1F` [Compound A-93] was 8 nM.
In turn, `CONC(=O)/C(C)=C/c1ccc(C(=O)Nc2nc(-c3ccc(Cl)c(Cl)c3)cs2)cc1` [Compound B-46] returned an EC50 of 213 nM.
The result for `O=C(O)/C(Cl)=C/c1ccc(C(=O)Nc2nc(-c3cc(C(F)(F)F)ccc3F)cs2)cc1` [Compound A-79] reads 410 nM; that for `COc1cc(C(=O)Nc2nc(-c3ccc(Cl)c(Cl)c3)cs2)ccc1C#CC(=O)O` [Compound L-4], 256 nM.
The value for `Cc1ccc(C)c(-c2csc(NC(=O)c3ccc(/C=C(\Cl)C(=O)O)cc3)n2)c1` [Compound A-87] was 710 nM.
`COC(=O)C(Cl)Cc1ccc(C(=O)Nc2nc(-c3ccc(Cl)c(Cl)c3)cs2)cc1` (centres unmarked) [Compound G-5]: the midpoint of the response, the EC50, lay at 260 nM.
The value for `CC(=Cc1ccc(C(=O)Nc2nc(-c3ccc(Cl)c(Cl)c3)cs2)cc1)C(=O)N1CCOCC1` [Compound B-8] was 378 nM; that for `CC(Cc1ccc(C(=O)Nc2nc(-c3ccc(Cl)c(Cl)c3)cs2)cc1)C(=O)O` (centres unmarked) [Compound G-3] was 430 nM.
The result for `CC(C)(C)c1ccc(-c2csc(NC(=O)c3ccc(/C=C(\Cl)C(=O)O)cc3)n2)cc1` [Compound A-48] reads 473 nM; that for `CCOC(=O)/C(C)=C/c1ccc(C(=O)Nc2nc(-c3cccc(C(F)(F)F)c3)cs2)cc1` [Compound A-27], 193 nM.
The value for `C#CCNC(=O)/C(C)=C/c1ccc(C(=O)Nc2nc(-c3ccc(Cl)c(Cl)c3)cs2)cc1` [Compound B-40] was 201 nM; that for `C/C(=C\c1ccc(C(=O)Nc2nc(-c3ccc(Cl)c(Cl)c3)cs2)cc1)C(=O)NCc1ccc(C(F)(F)F)cc1` [Compound B-13] was 213 nM; that for `O=C(O)/C(Cl)=C/c1ccc(C(=O)Nc2nc(-c3ccc(F)c(Cl)c3)cs2)cc1` [Compound A-75] was 73 nM.
In turn, `CSCCCNC(=O)/C(C)=C/c1ccc(C(=O)Nc2nc(-c3ccc(Cl)c(Cl)c3)cs2)cc1` [Compound B-32] registered an EC50 of 123 nM. Compared with the last molecule, the EC50 is about 1.7-fold higher.
The result for `CCOC(=O)C(Cl)=Cc1ccc(C(=O)Nc2nc(-c3ccc(Cl)c(Cl)c3)cs2)cc1` [Compound A-11] reads 33.5 nM.
Turning to `CCCCCc1cccc2c1CCc1sc(NC(=O)c3ccc(/C=C(\Cl)C(=O)O)cc3)nc1-2` [Compound J-15], it took 11 nM to reach a half-maximal effect (EC50).
The result for `CC(=O)NNC(=O)/C(C)=C/c1ccc(C(=O)Nc2nc(-c3ccc(Cl)c(Cl)c3)cs2)cc1` [Compound B-43] reads 303 nM; that for `CC(C(=O)O)=C(C)c1ccc(C(=O)Nc2nc(-c3ccc(Cl)c(Cl)c3)cs2)cc1` [Compound A-8], 529 nM.
The value for `CC(=Cc1ccc(C(=O)Nc2nc(-c3ccc(F)c(F)c3)cs2)cc1)C(=O)O` [Compound A-10] was 365 nM; that for `NC(=O)/C=C/c1ccc(C(=O)Nc2nc(-c3ccc(Cl)c(Cl)c3)cs2)cc1` [Compound B-2] was 257 nM; that for `O=C(O)/C(Cl)=C/c1ccc(C(=O)Nc2nc(-c3cccc(-c4ccccc4)c3F)cs2)cc1` [Compound A-80] was 66 nM.
Molecule `C/C(=C\c1ccc(C(=O)Nc2nc(-c3cccc(OC(F)(F)F)c3)cs2)cc1)C(=O)O` [Compound A-20] gave a concentration giving a half-maximal response (EC50) of 610 nM.
The value for `CNC(=O)C(C)=Cc1ccc(C(=O)Nc2nc(-c3ccc(Cl)c(Cl)c3)cs2)cc1` [Compound B-4] was 89 nM; that for `O=C(O)/C(Cl)=C/c1ccc(C(=O)Nc2nc(-c3cc(F)c(F)c(F)c3F)cs2)cc1` [Compound A-77] was 110 nM; that for `Cc1sc(NC(=O)c2ccc(/C=C(\Cl)C(=O)O)cc2)nc1-c1cccc(C(F)(F)F)c1F` [Compound J-12] was 107 nM.
The value for `CCOC(=O)/C(C)=C/c1ccc(C(=O)Nc2nc(-c3ccc(F)cc3)cs2)cc1` [Compound A-23] was 337 nM; that for `COc1cccc(-c2csc(NC(=O)c3ccc(/C=C(\Cl)C(=O)O)cc3)n2)c1F` [Compound A-82] was 199 nM; that for `O=C(O)C(F)=Cc1ccc(C(=O)Nc2nc(-c3cccc(OC(F)(F)F)c3)cs2)cc1` [Compound A-45] was 203 nM.
The result for `C/C(=C\c1ccc(C(=O)Nc2nc(-c3ccc(Cl)c(Cl)c3)cs2)cc1)C(=O)NCc1ccc(F)cc1` [Compound B-14] reads 305 nM.
For `CC/C(=C\c1ccc(C(=O)Nc2nc(-c3ccc(Cl)c(Cl)c3)cs2)cc1)C(=O)NC` [Compound B-18], the EC50 was found to be 150 nM.
The value for `O=C(O)/C(F)=C/c1ccc(C(=O)Nc2nc(-c3ccc(Cl)c(Cl)c3)cs2)cc1` [Compound A-43] was 71 nM; that for `C/C(=C\c1ccc(C(=O)Nc2nc(-c3ccc(C(F)(F)F)cc3)cs2)cc1)C(=O)O` [Compound A-26] was 98 nM.
The result for `CNC(=O)/C=C/c1ccc(C(=O)Nc2nc(-c3ccc(Cl)c(Cl)c3)cs2)cc1` [Compound B-3] reads 156 nM; that for `O=C(O)/C(Cl)=C/c1ccc(C(=O)Nc2nc(-c3ccc(F)cc3F)cs2)cc1` [Compound A-56], 66 nM.
The value for `O=C(O)C#Cc1ccc(C(=O)Nc2nc(-c3ccc(Cl)c(Cl)c3)cs2)cc1` [Compound L-2] was 143 nM; that for `CCCNC(=O)C(C)=Cc1ccc(C(=O)Nc2nc(-c3ccc(Cl)c(Cl)c3)cs2)cc1` [Compound B-7] was 59 nM.
In turn, `Cc1sc(NC(=O)c2ccc(/C=C(\Cl)C(=O)O)cc2)nc1-c1ccc(F)cc1F` [Compound J-11] registered an EC50 of 311 nM.
The value for `CC(=Cc1ccc(C(=O)Nc2nc(-c3ccc(Cl)c(Cl)c3)cs2)cc1)S(N)(=O)=O` [Compound F-3] was 198 nM; that for `C/C(=C\c1ccc(C(=O)Nc2nc(-c3cccc(F)c3)cs2)cc1)C(=O)O` [Compound A-18] was 132 nM.
